PMC11345841, “Exploring 2-Sulfonylpyrimidine Warheads as Acrylamide Surrogates for Targeted Covalent Inhibition: A BTK Story” (Journal of Medicinal Chemistry, 2024)
Where two headings read alike, the source gives them in different places.

Experiments:
Test in all cases: KINOMEscan ScanTK
Assay type in all cases: binding
FLT3(R834Q) = target: T1, FLT3(R834Q) (Homo sapiens, UniProt P36888, R834Q)
T1 construct: purchased Eurofins DiscoverX KINOMEscan (scanTK)
T1 sequence (P36888 27-993 R834Q): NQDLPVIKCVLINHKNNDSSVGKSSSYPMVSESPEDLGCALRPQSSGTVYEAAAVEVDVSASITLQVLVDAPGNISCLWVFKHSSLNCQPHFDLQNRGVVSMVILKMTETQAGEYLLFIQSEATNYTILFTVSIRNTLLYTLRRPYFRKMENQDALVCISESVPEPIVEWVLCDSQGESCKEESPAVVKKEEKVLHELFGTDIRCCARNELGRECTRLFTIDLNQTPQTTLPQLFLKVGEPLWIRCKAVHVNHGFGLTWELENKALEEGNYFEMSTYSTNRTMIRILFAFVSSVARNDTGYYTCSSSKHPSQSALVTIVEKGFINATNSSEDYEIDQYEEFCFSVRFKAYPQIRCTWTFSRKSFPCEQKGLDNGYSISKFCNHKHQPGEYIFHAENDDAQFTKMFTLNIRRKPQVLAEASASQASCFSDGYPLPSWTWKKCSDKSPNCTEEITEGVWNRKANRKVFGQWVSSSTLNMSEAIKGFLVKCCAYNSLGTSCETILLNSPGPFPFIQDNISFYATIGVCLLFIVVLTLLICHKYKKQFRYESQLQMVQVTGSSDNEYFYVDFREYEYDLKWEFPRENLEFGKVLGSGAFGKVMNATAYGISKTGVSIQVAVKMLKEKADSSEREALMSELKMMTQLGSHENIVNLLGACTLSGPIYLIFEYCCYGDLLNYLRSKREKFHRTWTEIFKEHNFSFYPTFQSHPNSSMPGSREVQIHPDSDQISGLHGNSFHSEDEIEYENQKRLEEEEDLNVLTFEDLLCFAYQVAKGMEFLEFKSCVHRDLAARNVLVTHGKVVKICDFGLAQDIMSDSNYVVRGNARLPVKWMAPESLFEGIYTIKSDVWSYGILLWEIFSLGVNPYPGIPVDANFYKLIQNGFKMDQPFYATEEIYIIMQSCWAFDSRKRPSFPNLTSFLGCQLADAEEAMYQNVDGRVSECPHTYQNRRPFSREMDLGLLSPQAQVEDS

FAK = target: T2, FAK (Homo sapiens, UniProt Q05397)
T2 construct: purchased Eurofins DiscoverX KINOMEscan (scanTK)

[1] = target: T3, ABL1(H396P)-phosphorylated (Homo sapiens, UniProt P00519, H396P)
T3 construct: purchased Eurofins DiscoverX KINOMEscan (scanTK)

EPHB3 = target: T4, EPHB3 (Homo sapiens, UniProt P54753)
T4 construct: purchased Eurofins DiscoverX KINOMEscan (scanTK)
T4 sequence (P54753 34-998): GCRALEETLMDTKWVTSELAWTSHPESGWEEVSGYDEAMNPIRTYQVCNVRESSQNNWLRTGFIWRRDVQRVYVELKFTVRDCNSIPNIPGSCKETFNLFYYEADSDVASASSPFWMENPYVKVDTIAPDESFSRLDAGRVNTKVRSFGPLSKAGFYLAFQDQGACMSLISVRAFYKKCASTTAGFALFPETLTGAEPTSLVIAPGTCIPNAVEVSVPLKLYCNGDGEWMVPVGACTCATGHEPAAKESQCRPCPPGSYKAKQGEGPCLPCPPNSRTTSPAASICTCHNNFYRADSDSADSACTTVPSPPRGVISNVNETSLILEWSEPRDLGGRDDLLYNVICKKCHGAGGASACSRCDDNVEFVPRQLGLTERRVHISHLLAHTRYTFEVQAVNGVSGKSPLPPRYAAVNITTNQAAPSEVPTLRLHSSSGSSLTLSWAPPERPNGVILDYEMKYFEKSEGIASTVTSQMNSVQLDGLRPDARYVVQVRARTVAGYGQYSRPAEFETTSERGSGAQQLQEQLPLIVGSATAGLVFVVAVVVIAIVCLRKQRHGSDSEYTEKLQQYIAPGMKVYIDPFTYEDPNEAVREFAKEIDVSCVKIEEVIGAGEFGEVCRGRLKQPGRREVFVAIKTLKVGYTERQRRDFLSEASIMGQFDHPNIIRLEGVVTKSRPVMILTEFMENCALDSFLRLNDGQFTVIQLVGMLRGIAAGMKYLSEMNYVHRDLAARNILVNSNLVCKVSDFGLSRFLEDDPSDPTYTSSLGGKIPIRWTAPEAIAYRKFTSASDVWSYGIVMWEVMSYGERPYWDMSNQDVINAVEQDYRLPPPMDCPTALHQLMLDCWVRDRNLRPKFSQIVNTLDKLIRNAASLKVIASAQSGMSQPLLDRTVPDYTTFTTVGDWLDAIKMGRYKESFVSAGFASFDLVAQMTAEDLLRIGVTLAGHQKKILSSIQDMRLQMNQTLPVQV

EGFR(E746-A750del) = target: T5, EGFR(E746-A750del) (Homo sapiens, UniProt P00533, DEL746-750)
T5 construct: purchased Eurofins DiscoverX KINOMEscan (scanTK)
T5 sequence (P00533 with tags, fused parts or gaps DEL746-750 limits assumed): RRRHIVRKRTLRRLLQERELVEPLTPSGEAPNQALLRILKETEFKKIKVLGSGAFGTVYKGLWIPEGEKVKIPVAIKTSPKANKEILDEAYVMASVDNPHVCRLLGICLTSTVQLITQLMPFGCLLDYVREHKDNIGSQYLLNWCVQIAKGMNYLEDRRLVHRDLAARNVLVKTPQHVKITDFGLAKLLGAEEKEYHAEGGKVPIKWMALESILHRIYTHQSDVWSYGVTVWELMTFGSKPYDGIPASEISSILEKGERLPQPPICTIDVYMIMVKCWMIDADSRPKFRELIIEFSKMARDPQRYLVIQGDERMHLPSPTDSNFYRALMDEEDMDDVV

T2 sequence (Q05397 whole entry): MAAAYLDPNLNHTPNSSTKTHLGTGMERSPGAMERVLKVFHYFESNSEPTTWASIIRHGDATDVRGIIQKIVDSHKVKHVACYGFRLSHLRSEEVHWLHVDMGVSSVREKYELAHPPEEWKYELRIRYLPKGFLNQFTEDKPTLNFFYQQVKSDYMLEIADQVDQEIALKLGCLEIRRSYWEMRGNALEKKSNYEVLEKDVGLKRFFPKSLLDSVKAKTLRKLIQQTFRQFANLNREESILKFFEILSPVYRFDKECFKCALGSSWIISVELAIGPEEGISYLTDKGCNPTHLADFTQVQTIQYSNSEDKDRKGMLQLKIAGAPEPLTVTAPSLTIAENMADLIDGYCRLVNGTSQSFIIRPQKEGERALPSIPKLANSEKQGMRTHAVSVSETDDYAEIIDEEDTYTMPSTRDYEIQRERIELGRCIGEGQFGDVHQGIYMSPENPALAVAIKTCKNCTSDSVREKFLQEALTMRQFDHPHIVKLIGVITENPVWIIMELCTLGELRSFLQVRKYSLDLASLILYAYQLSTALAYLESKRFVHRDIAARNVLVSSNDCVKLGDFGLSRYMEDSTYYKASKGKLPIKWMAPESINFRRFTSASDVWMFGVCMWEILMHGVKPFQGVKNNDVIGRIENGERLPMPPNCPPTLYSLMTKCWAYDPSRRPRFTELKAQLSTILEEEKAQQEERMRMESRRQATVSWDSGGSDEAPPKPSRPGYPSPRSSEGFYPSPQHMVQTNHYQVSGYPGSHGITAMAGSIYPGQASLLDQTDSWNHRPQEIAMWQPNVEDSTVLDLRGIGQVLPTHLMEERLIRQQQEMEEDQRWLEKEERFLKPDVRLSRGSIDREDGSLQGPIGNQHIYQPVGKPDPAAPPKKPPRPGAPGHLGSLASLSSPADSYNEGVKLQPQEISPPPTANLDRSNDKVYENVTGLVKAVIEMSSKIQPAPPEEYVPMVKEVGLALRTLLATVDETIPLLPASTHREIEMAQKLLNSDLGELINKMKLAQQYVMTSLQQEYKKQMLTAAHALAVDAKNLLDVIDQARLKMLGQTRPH

Structure (SMILES) | difference in %Control versus compound Ib at 1 µM (FLT3(R834Q); @1000nM) [%] | remaining binding at 1 µM (FLT3(R834Q); @1000nM, read-out: %Control) [%] | remaining binding at 1 µM (FLT3(R834Q); read-out: %Control @1000nM) [%] | difference in %Control versus compound Ib at 1 µM (FAK; @1000nM) [%] | remaining binding at 1 µM (FAK; @1000nM, read-out: %Control) [%] | remaining binding at 1 µM (FAK; read-out: %Control @1000nM) [%] | %Control difference versus compound Ib at 1 µM ([1]; @1000nM) [%] | remaining binding at 1 µM ([1]; @1000nM, read-out: %Control) [%] | remaining binding at 1 µM ([1]; read-out: %Control @1000nM) [%] | difference in %Control versus compound Ib at 1 µM (EPHB3; @1000nM) [%] | remaining binding at 1 µM (EPHB3; @1000nM, read-out: %Control) [%] | remaining binding at 1 µM (EPHB3; read-out: %Control @1000nM) [%] | difference in %Control from reference compound Ib at 1 µM (EGFR(E746-A750del); @1000nM) [%] | remaining binding at 1 µM (EGFR(E746-A750del); @1000nM, read-out: %Control) [%] | remaining binding at 1 µM (EGFR(E746-A750del); read-out: %Control @1000nM) [%]
C=CC(=O)N1CCC[C@@H](n2nc(-c3ccc(Oc4ccccc4)cc3)c3c(N)ncnc32)C1 [Compound 1g, Ibrutinib, reference compound] | – | 61 | 61 | – | 100 | 100 | – | 80 | 80 | – | 98 | 98 | – | – | –
CNC(=O)c1cnc(S(C)(=O)=O)nc1N1CCCC(n2nc(-c3ccc(Oc4ccccc4)cc3)c3c(N)ncnc32)C1 (centres unmarked) [Compound 8d, 4-(3-(4-Amino-3-(4-phenoxyphenyl)-1H-pyrazolo[3,4-d]pyrimidin-1-yl)piperidin-1-yl)-N-methyl-2-(methylsulfonyl)pyrimidine-5-carboxamide] | 29 | 90 | 90 | 0 | 100 | 100 | -1 | 79 | 79 | 2 | 100 | 100 | 74 | 85 | 85

Now from value to compound:

difference in %Control versus compound Ib at 1 µM (FLT3(R834Q); @1000nM) [%] | remaining binding at 1 µM (FLT3(R834Q); @1000nM, read-out: %Control) [%] | remaining binding at 1 µM (FLT3(R834Q); read-out: %Control @1000nM) [%] | difference in %Control versus compound Ib at 1 µM (FAK; @1000nM) [%] | remaining binding at 1 µM (FAK; @1000nM, read-out: %Control) [%] | remaining binding at 1 µM (FAK; read-out: %Control @1000nM) [%] | %Control difference versus compound Ib at 1 µM ([1]; @1000nM) [%] | remaining binding at 1 µM ([1]; @1000nM, read-out: %Control) [%] | remaining binding at 1 µM ([1]; read-out: %Control @1000nM) [%] | difference in %Control versus compound Ib at 1 µM (EPHB3; @1000nM) [%] | remaining binding at 1 µM (EPHB3; @1000nM, read-out: %Control) [%] | remaining binding at 1 µM (EPHB3; read-out: %Control @1000nM) [%] | difference in %Control from reference compound Ib at 1 µM (EGFR(E746-A750del); @1000nM) [%] | remaining binding at 1 µM (EGFR(E746-A750del); @1000nM, read-out: %Control) [%] | remaining binding at 1 µM (EGFR(E746-A750del); read-out: %Control @1000nM) [%] | Structure (SMILES)
38 | 99 | 99 | -4 | 96 | 96 | -3 | 77 | 77 | -20 | 78 | 78 | 89 | 100 | 100 | CCOC(=O)c1cnc(S(C)(=O)=O)nc1N1CCC[C@@H](n2nc(-c3ccc(Oc4ccccc4)cc3)c3c(N)ncnc32)C1 [Compound 8c, Ethyl (R)-4-(3-(4-Amino-3-(4-phenoxyphenyl)-1H-pyrazolo[3,4-d]pyrimidin-1-yl)piperidin-1-yl)-2-(methylsulfonyl)pyrimidine-5-carboxylate]
9 | 70 | 70 | -1 | 99 | 99 | 4 | 84 | 84 | 2 | 100 | 100 | 88 | 99 | 99 | Cc1cnc(S(C)(=O)=O)nc1N1CCCC(n2nc(-c3ccc(Oc4ccccc4)cc3)c3c(N)ncnc32)C1 (centres unmarked) [Compound 8a, 1-(1-(5-Methyl-2-(methylsulfonyl)pyrimidin-4-yl)piperidin-3-yl)-3-(4-phenoxyphenyl)-1H-pyrazolo[3,4-d]pyrimidin-4-amine]
22 | 83 | 83 | 0 | 100 | 100 | 12 | 92 | 92 | -1 | 97 | 97 | 73 | 84 | 84 | COC(=O)c1cnc(S(C)(=O)=O)nc1N1CCCC(n2nc(-c3ccc(Oc4ccccc4)cc3)c3c(N)ncnc32)C1 (centres unmarked) [Compound 8b, Methyl 4-(3-(4-Amino-3-(4-phenoxyphenyl)-1H-pyrazolo[3,4-d]pyrimidin-1-yl)piperidin-1-yl)-2-(methylsulfonyl)pyrimidine-5-carboxylate]
